Assay results taken from patent US20210260091A1, “USE OF SALIDROSIDE AND DERIVATIVE THEREOF IN PREPARATION OF INHIBITOR MEDICAMENT FOR DISEASES OF OPHTHALMIC FIBROSIS CAUSED BY ABNORMALITIES OF EXTRACELLULAR MATRIX PROTEINS” (priority 2018, published 2021).

Columns and labels:
[1] = tested on: laminin (LN), collagen IV (Col-IV) and fibronectin (FN) mRNA in trabecular meshwork cells; assay: qRT-PCR of extracellular matrix expression in dexamethasone-induced normal human trabecular meshwork cells; format: cell-based
Description: Normal Trabecular Meshwork cells (NTM) were cultured with F12 containing 10% fetal bovine serum (FBS). When the normal human trabecular meshwork cells were 75%-80% confluent, cells were digested with pancreatic enzymes and planted into a 6-well plate with 2 mL culture media per well.
Normal human normal trabecular meshwork cells were used as a untreated control group. Normal human trabecular meshwork cells with dexamethasone added were used as the experimental control group. Normal human trabecular meshwork cells with dexamethasone and different concentrations of salidroside added were used as the experimental groups (The concentration of dexamethasone used in the experimental control group and the experimental groups was 10^−7 mol/L. The concentrations of salidroside were 1, 3, 10, 30, 100 μmol/L, respectively). The trabecular meshwork cells were cultured for 0, 3, 6, 12, 24, 48 h.
Primer sequences for laminin (LN), collagen IV (Col-IV) and fibronectin (FN) mRNA were designed. Messenger RNA levels of LN, Col-IV, and FN were detected with qRT-PCR. Anti-LN, anti-Col-IV, and anti-FN antibodies were used to detect protein expression of the trabecular meshwork extracellular matrix protein in immunocytochemistry.
FIGS. 1-3 show the effect of salidroside detected by the qRT-PCR on the extracellular matrix proteins of human trabecular meshwork induced by the dexamethasone. […]

[2] = Mouse glaucoma model (intravitreal TGF-β2 overexpression adenovirus vector), intraocular pressure; format: in vivo, Balb/cJ mice; conditions: 40 mg/kg intraperitoneal once daily
Description: 1. Salidroside powder was dissolved in normal saline to make 40 mg/kg salidroside solution. 2. Male Balb/cJ mice 8 to 12 weeks old and weighted about […] were used. The selected mice met the requirement of the first-level animal standards. Mice and feed were provided by the Experimental Animal Center of the Ninth People's Hospital, affiliated with Shanghai Jiaotong University School of Medicine. Vivarium temperature was controlled between 15 to 20° C., and relative humidity was 55 to 75%, with 12h light. Food and drinking water were on an ad libitum basis. Mice that met the inclusion criteria were selected: (1) no eye disease; (2) pupillary light reflexes in both eyes in response to direct and indirect light were normal. 4. Intraocular pressure in both the left and the right eye of each conscious mouse was measured and recorded. 5. Weight measurements of each mouse were taken. 4% chloral hydrate was injected to anaesthetize mice at a dose of 10 μL/g body weight; 6. Mouse glaucoma model: 3 μL TGF-β2 overexpression adenovirus vector (3×10^7 pfu/μL) was injected into the vitreous chamber to induce ocular hypertension. […] On the day of adenovirus vector intravitreal injection, mouse intraocular pressure was measured once. Intraocular pressure was measured again on the next day and subsequent selected days to avoid damage to the cornea caused by frequent measurement. […]

[3] = Rabbit glaucoma model (1% dexamethasone eye drops), intraocular pressure; format: in vivo, New Zealand white rabbit; conditions: one week; for Average intraocular pressure, Left eye: 3 times a day, two drops, 4 h after treatment; for IOP reduction rate: left eye vs right eye; for Average intraocular pressure, Right eye: right eye as control
Description: 1. Salidroside powder was dissolved in normal saline to prepare salidroside eye drops at the concentrations of 20 μM, 25 μM, 30 μM.
2. Fitly healthy, adult New Zealand white rabbit with body weight between 2.0 to 3.0 kg, consisting of equal numbers of male and female, were chosen for study. Rabbit glaucoma model was established by dosing the animals with 1% dexamethasone eye drops on both eyes 5 times a day for a total induction time of 3 weeks. Intraocular pressure was monitored starting from week 2. Glaucoma model was considered successfully established when intraocular pressure, measured at the same time of the day, was above 22 mmHg for a week. Glaucoma model was successful established on all 50 rabbits with the average intraocular pressure of 26.07±2.03 mmHg (n=100 eyes). Rabbits were randomly divided into 5 groups of 10: the normal control group, positive drug group (Travatan®, 0.004% travoprost eye drops), and three salidroside groups (20 μM, 25 μM, 30 μM salidroside).
Positive drug group was treated with Travatan® in the left eye, three times a day, two drops each time. Intraocular pressure was measured 4 hours after treatment. Treatment lasted for two weeks. The three salidroside groups were treated with salidroside eye drops three times a day, two drops each time. Intraocular pressure was measured 4 hours after treatment. Treatment lasted for two weeks. The normal control group received eye drops in both eyes three times a day, two drops each time. Intraocular pressure was measured 4 hours after receiving eye drops. Eye drops were administered for 2 weeks.
One week after the start of experiment, the average pressure for each eye after each measurement in each group is shown in Table 1.

OC[C@H]1O[C@@H](OCCc2ccc(O)cc2)[C@H](O)[C@@H](O)[C@@H]1O [Salidroside, 2-(4-HYDROXYPHENYL) ETHYL-BETA-D-GLUCOPYRANOSIDE]
expression level of TGF beta, FN, COL-IV and LN ([1]; applicant's previous studies, dexamethasone-induced cells, after intervention of salidroside): decreases | extracellular matrix proteins of the trabecular meshwork (FN, COL-IV, LN; qRT-PCR) ([1]; dexamethasone 10^-7 mol/L plus salidroside 1, 3, 10, 30, 100 μmol/L, normal human trabecular meshwork cells): reduced | intraocular pressure vs glaucoma control group ([2]; salidroside intervention group (treated immediately after vector injection), 11th day after initiation): statistically significantly lowered | intraocular pressure vs glaucoma control group ([2]; salidroside treatment group (treated after IOP increased and stabilized), 18th day after initiation): statistically significantly lowered | Average intraocular pressure, Left eye ([3]; 20 μM eye drops): 15.57 ± 1.52 mmHg | IOP reduction rate ([3]; 20 μM eye drops): 30.98% | Average intraocular pressure, Right eye ([3]; 20 μM group): 22.56 ± 1.72 mmHg | Average intraocular pressure, Left eye ([3]; 25 μM eye drops): 15.07 ± 1.19 mmHg | IOP reduction rate ([3]; 25 μM eye drops): 34.56% | Average intraocular pressure, Right eye ([3]; 25 μM group): 23.03 ± 1.02 mmHg | Average intraocular pressure, Left eye ([3]; 30 μM eye drops): 14.37 ± 1.54 mmHg | IOP reduction rate ([3]; 30 μM eye drops): 37.19% | Average intraocular pressure, Right eye ([3]; 30 μM group): 22.88 ± 1.09 mmHg | average intraocular pressure in the left eye compared with the corresponding right eye as a control ([3]; P<0.01): significant lowered | IOP-lowering effect compared with the Travatan group ([3]; salidroside groups 20, 25, 30 μM eye drops): better than that of the Travatan® group
